# ChEMBL document CHEMBL5614415, “Recent advances and challenges of revolutionizing drug-resistant tuberculosis treatment” (Eur J Med Chem, 2024)
# Tests used:
# [1] = system: Mycobacterium tuberculosis; experiment: Antimicrobial activity against Mycobacterium tuberculosis H37Rv ATCC 27294 assessed as inhibition of bacterial growth incubated for […] by broth dilution method; assay type: functional; settings: time lower 18 hrs
# [2] = system: Mycobacterium tuberculosis; experiment: Antimycobacterial activity against Mycobacterium tuberculosis H37Rv assessed as reduction in bacterial growth after 7 days by resazurin based fluorescence assay; assay type: functional; settings: 168 h, time 7 day
# [3] = system: Mycobacterium tuberculosis; experiment: Antibacterial activity against Mycobacterium tuberculosis H37Rv; assay type: functional
# [4] = system: Mycobacterium tuberculosis; experiment: Antibacterial activity against Mycobacterium tuberculosis H37Rv assessed as reduction in bacterial growth measured after 7 days by broth micro-dilution method; assay type: functional; settings: 168 h, time 7 day
# [5] = system: Mycobacterium tuberculosis; experiment: Antimycobacterial activity against Mycobacterium tuberculosis H37Rv ATCC 27294 assessed as reduction in bacterial cell growth by resazurin reduction method; assay type: functional
# [6] = system: Mycobacterium tuberculosis; experiment: Antibacterial activity against Mycobacterium tuberculosis ATCC 35801 assessed as inhibition of bacterial growth incubated for 7 days by resazurin microtiter assay; assay type: functional; settings: ATCC 35801, 168 h, time 7 day
# [7] = system: Mycobacterium tuberculosis; experiment: Antibacterial activity against Mycobacterium tuberculosis H37Rv assessed as bacterial growth inhibition by CLSI broth microdilution method; assay type: functional
# [8] = system: Mycobacterium tuberculosis; experiment: Antimycobacterial activity against Mycobacterium tuberculosis […] assessed as reduction in bacterial growth; assay type: functional
# [9] = target: Cytochrome P450 2C9 (Homo sapiens, UniProt P11712); experiment: Inhibition of CYP2C9 (unknown origin); assay type: ADME
# [10] = system: Mycobacterium tuberculosis; experiment: Antibacterial activity against wild type Mycobacterium tuberculosis H37Rv infected in BALB/c mouse assessed as log reduction in colony forming units at 20 mg/kg; assay type: functional
# [11] = system: Mycobacterium tuberculosis; experiment: Antimycobacterial activity against Mycobacterium tuberculosis H37Rv assessed as reduction in bacterial cell growth by resazurin reduction method; assay type: functional
# [12] = system: Mycobacterium tuberculosis; experiment: Antitubercular activity against Mycobacterium tuberculosis H37Ra assessed as inhibition of bacterial growth incubated for 7 days by Microdilution Alamar Blue assay; assay type: functional; settings: 168 h, time 7 day
# [13] = system: Salmonella typhimurium; experiment: Antibacterial activity against Salmonella typhimurium DT104 assessed as inhibition of bacterial growth incubated for 18 hrs by CLSI protocol based microbroth dilution method; assay type: functional, Salmonella enterica subsp. enterica serovar Typhimurium; settings: Salmonella enterica
# [14] = system: Mycobacterium tuberculosis; experiment: Antimycobacterial activity against Mycobacterium tuberculosis; assay type: functional
# [15] = system: Mycobacterium tuberculosis; experiment: Antimycobacterial activity against Mycobacterium tuberculosis assessed as reduction in bacterial growth; assay type: functional
# [16] = system: Mycobacterium avium; experiment: Antimycobacterial activity against Mycobacterium avium assessed as bacterial growth inhibtion; assay type: functional
# [17] = system: Mycobacterium tuberculosis; experiment: Antimycobacterial activity against Mycobacterium tuberculosis H37Rv ATCC 27294 assessed as reduction in bacterial cell growth; assay type: functional
# [18] = system: Staphylococcus aureus; experiment: Antibacterial activity against Staphylococcus aureus assessed as reduction in microbial growth by CLSI protocol based broth micro-dilution method; assay type: functional
# [19] = system: Mycobacterium tuberculosis; experiment: Antimycobacterial activity against Mycobacterium tuberculosis assessed as bacterial growth inhibition; assay type: functional
# [20] = system: Mycolicibacterium smegmatis; experiment: Antimicrobial activity against Mycobacterium smegmatis ATCC 700084 assessed as bacterial growth inhibition; assay type: functional
# [21] = system: Mycolicibacterium smegmatis; experiment: Antimycobacterial activity against Mycobacterium smegmatis mc2 155 assessed as reduction in bacterial cell growth by resazurin reduction method; assay type: functional
# Chain of Cytochrome P450 2C9 (P11712 whole entry): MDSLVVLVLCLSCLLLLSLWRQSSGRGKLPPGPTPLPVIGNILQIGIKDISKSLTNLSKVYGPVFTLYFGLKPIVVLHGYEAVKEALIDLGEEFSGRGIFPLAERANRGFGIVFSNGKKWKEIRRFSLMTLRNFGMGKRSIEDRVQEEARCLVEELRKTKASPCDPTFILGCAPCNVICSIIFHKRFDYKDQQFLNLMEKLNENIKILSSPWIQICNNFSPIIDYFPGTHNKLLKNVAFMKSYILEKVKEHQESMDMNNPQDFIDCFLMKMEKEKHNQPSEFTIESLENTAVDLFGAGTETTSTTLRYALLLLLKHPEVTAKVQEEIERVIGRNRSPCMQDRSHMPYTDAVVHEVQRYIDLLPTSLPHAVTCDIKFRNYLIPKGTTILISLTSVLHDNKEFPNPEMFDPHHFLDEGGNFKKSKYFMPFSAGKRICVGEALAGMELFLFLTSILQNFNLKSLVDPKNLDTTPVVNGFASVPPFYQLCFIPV
structure (smiles),measurement,setting,value
C(=C\c1cc2ccc(C3=NCCN3)cc2[nH]1)/c1cc2ccc(C3=NCCN3)cc2[nH]1,MIC50,[1],0.03 µg/mL
c1cc2cc(-c3ccc(-c4cc5ccc(C6=NCCN6)cc5[nH]4)cc3)[nH]c2cc1C1=NCCN1,MIC50,[1],0.04 µg/mL
c1cc2cc(-c3ccc4cc(C5=NCCN5)[nH]c4c3)[nH]c2cc1C1=NCCN1,MIC50,[1],0.08 µg/mL
c1cc2cc(-c3ccc4cc(-c5ccc6oc(C7=NCCN7)cc6c5)[nH]c4c3)[nH]c2cc1C1=NCCN1,MIC50,[1],0.02 µg/mL
O=C(Nc1nc(-c2ccccn2)cs1)c1ccc(Cl)s1,MIC50,[2],0.25 µg/mL
O=[N+]([O-])c1cn2c(n1)OC[C@@H](OCc1ccc(-c3ccc(C(F)(F)F)cc3)nc1)C2,MIC50,[3],< 0.015 µg/mL
c1ccc(CC2CCN(CC3CCN(CC45CC6CC(CC(C6)C4)C5)CC3)CC2)cc1,MIC90,[4],7 µg/mL
CCN(CC)CCOc1c(C(=O)OC)c2c3c(oc2c2ccccc12)C(=O)c1ccccc1C3=O,MIC50,[5],0.19 µg/mL
OC1CCN(C2CCN(CC34CC5CC(CC(C5)C3)C4)CC2)CC1,MIC90,[4],> 10 µg/mL
CCNC(=O)Nc1nc2cc(-c3cnc(C(C)(C)O)nc3)c(F)c([C@H]3CCCO3)c2[nH]1,MIC50,[6],0.03 µg/mL
CC1(C)CCC(NC(=O)c2cc3c(Cl)cc(Cl)cc3[nH]2)CC1,MIC50,[7],0.005 µg/mL
CCCCc1ccc(NC(=O)C2=CCN(C)[C@@H]([C@H](O[C@@H]3O[C@H](CN)[C@@H](O)[C@H]3O)[C@H]3O[C@@H](n4ccc(=O)[nH]c4=O)[C@H](O)[C@@H]3O)C(=O)N2C)cc1,MIC50,[8],3.13 µg/mL
CCOC(=O)NC(=O)c1ccsc1NC(=O)c1ccn2cnnc2c1,IC50,[9],> 10000 nM
CCOc1cc([C@](O)(CCN(C)C)[C@@H](c2cc3cc(Br)ccc3nc2OC)c2cccc(OC)c2F)cc(OC)n1,log(activity),[10],1.5
CCOC(=O)NC(=O)c1cc(F)sc1NC(=O)c1nc2ccccc2s1,IC50,[9],150 nM
CC(=O)N1/C(=C/c2ccc(Oc3ccc(Cl)cc3)cc2)C(=O)c2cc(Cl)ccc21,MIC99,[11],0.13 µg/mL
CC(=O)N1/C(=C/c2ccc(Oc3ccc(Cl)cc3)cc2)C(=O)c2ccccc21,MIC99,[11],0.18 µg/mL
CC(=O)N1/C(=C/c2ccc(-c3ccccc3)cc2)C(=O)c2ccccc21,MIC99,[11],0.38 µg/mL
CC(=O)N1/C(=C/c2ccc(-c3ccsc3)cc2)C(=O)c2ccccc21,MIC99,[11],0.16 µg/mL
CC(=O)N1/C(=C/c2cccc(-c3ccccc3)c2)C(=O)c2ccccc21,MIC99,[11],0.69 µg/mL
CC(=O)N1/C(=C/c2ccc(Br)cc2)C(=O)c2ccccc21,MIC99,[11],0.42 µg/mL
COC(=O)c1ccsc1NC(=O)C1CCCN1 (configuration not stated),MIC50,[12],0.8 µg/mL
OCC1CCCN1CC1CCN(CC23CC4CC(CC(C4)C2)C3)CC1 (configuration not stated),MIC90,[4],> 10 µg/mL
CCOC(=O)NC(=O)c1ccsc1NC(=O)c1nc2cccnc2s1,IC50,[9],130 nM
COc1c(N2CC3(CC3)[C@@](C)(N)C2)c(F)cc2c(=O)c(C(=O)O)cn(C3C[C@H]3F)c12 (some centres not stated),MIC90,[13],0.06 µg/mL
CN[C@@H]1[C@H](O)[C@H](NC)[C@H]2O[C@@]3(O)[C@H](NC(=O)Cc4ccc(Cl)cn4)C[C@@H](C)C[C@H]3O[C@@H]2[C@H]1O,MIC50,[14],1.6 µg/mL
OC1CCN(CC2CCC(CNCc3ccccc3)CC2)CC1 (configuration not stated),MIC90,[4],> 12 µg/mL
O=C(OCc1ccccc1)c1ccsc1NC(=O)C1CCCN1 (configuration not stated),MIC50,[12],1.3 µg/mL
CN[C@@H]1[C@H](O)[C@H](NC)[C@H]2O[C@@]3(O)[C@H](NC(=O)Cc4ccc(F)cn4)C[C@@H](C)C[C@H]3O[C@@H]2[C@H]1O,MIC50,[14],0.8 µg/mL
OC1CCN(C2CCN(Cc3ccccc3)CC2)CC1,MIC90,[4],> 10 µg/mL
OC1CCN(CC2CCN(Cc3ccccc3)CC2)CC1,MIC90,[4],6.2 µg/mL
CCCCCCCCCC(=O)C[C@@H]1[C@H](OC)C([C@@H](O[C@H]2OC(C(=O)N[C@H]3CCC[C@@H](C)NC3=O)=C[C@H](O)[C@@H]2O)C(N)=O)O[C@H]1n1ccc(=O)[nH]c1=O (some centres not stated),MIC50,[8],1 µg/mL
O=C(Oc1ccccc1)c1ccsc1NC(=O)C1CCCN1 (configuration not stated),MIC50,[12],2.4 µg/mL
OC1CCN(CC2CCN(CC34CC5CC(CC(C5)C3)C4)CC2)CC1,MIC90,[4],4 µg/mL
COc1nc2ccc(Br)cc2cc1[C@@H](c1ccccc1)[C@@](O)(CCN(C)C)c1cccc2ccccc12 [BEDAQUILINE],MIC50,[15],0.01 µg/mL
same,MIC50,[16],0.01 µg/mL
C[C@]1(COc2ccc(N3CCC(Oc4ccc(OC(F)(F)F)cc4)CC3)cc2)Cn2cc([N+](=O)[O-])nc2O1 [DELAMANID],MIC50,[3],0.006 µg/mL
CN1CCN(c2ccc(N3C[C@H](CO)OC3=O)cc2F)C=N1 [DELPAZOLID],MIC50,[17],0.5 µg/mL
same,MIC50,[18],0.5 µg/mL
CC(=O)NC[C@H]1CN(c2ccc(N3CCOCC3)c(F)c2)C(=O)O1 [LINEZOLID],MIC50,[19],0.3 µg/mL
same,MIC50,[18],0.3 µg/mL
O=[N+]([O-])c1cn2c(n1)OC[C@@H](OCc1ccc(OC(F)(F)F)cc1)C2 [PRETOMANID],MIC50,[3],0.015 µg/mL
O=C1CCc2c(OC[C@]3(O)CCN(c4c(F)cc(Cl)cc4F)C[C@H]3O)ccc(F)c2N1 [QUABODEPISTAT],MIC50,[14],0.00024 µg/mL
CC(C)=CCC/C(C)=C/CNCCNC1C2CC3CC(C2)CC1C3 (configuration not stated) [SQ109],MIC50,[14],0.12 µg/mL
CC(=O)NC[C@H]1CN(c2ccc(N3CCSCC3)c(F)c2)C(=O)O1 [SUTEZOLID],MIC50,[19],0.03 µg/mL
same,MIC50,[18],0.03 µg/mL
COc1ncnc(Cn2cc(C(=O)NCCO)c3ncc(C)cc32)c1C [TBA-7371],MIC50,[8],0.28 µg/mL
COc1cc([C@](O)(CCN(C)C)[C@@H](c2cc3cc(Br)ccc3nc2OC)c2cccc(OC)c2F)cc(OC)n1 [TBAJ-587],MIC50,[20],< 0.02 µg/mL
same,log(activity),[10],4.5
same,MIC50,[16],0.006 µg/mL
COc1cc([C@](O)(CCN(C)C)[C@@H](c2cc3cc(Br)ccc3nc2OC)c2cc(OC)nc(OC)c2OC)cc(OC)n1 [TBAJ-876],MIC50,[16],5 µg/mL
CCc1nc2ccc(Cl)cn2c1C(=O)NCc1ccc(N2CCC(c3ccc(OC(F)(F)F)cc3)CC2)cc1 [TELACEBEC],MIC90,[21],0.0024 µg/mL
